Measured values published in patent US4147797A, “Spiro-furanohydantoin derivatives” (Pfizer Inc., priority 1978, dated 1979).

Columns and labels:
[1] = molecular target: T1, aldose reductase (Bos taurus, UniProt P16116); assay: inhibition of aldose reductase enzyme activity (partially purified enzyme from calf lens); type: biochemical; conditions: read-out: 50% Inhibitory Concentration
T1 construct: partially purified aldose reductase enzyme obtained from calf lens; from tissue; host or cells: calf lens
Excerpt: The activity of the compounds of the present invention as agents for the control of chronic diabetic complications may be determined by a number of standard biological or pharmacological tests. Suitable tests include (1) measuring their ability to inhibit the enzyme activity of isolated aldose reductase and (2) measuring their ability to reduce or inhibit sorbitol accumulation in the sciatic nerve of acutely streptozotocinized (i.e., diabetic) rats. […] Pat. No. 3,821,383 and based on the procedure on Hayman et. al., Journal of Biological Chemistry, 240, 877 (1965). The substrate employed was partially purified aldose reductase enzyme obtained from calf lens.

[2] = system: sorbitol accumulation in the sciatic nerve of streptozotocinized (i.e., diabetic) rats; assay: inhibition of sorbitol accumulation in the sciatic nerve of streptozotocinized (diabetic) rats; type: in vivo; conditions: 25 mg/kg oral at 4, 8 and 24 hours after streptozotocin; sorbitol measured 27 hours after induction of diabetes; compared to untreated animals
Protocol: The activity of the compounds of the present invention as agents for the control of chronic diabetic complications may be determined by a number of standard biological or pharmacological tests. Suitable tests include (1) measuring their ability to inhibit the enzyme activity of isolated aldose reductase and (2) measuring their ability to reduce or inhibit sorbitol accumulation in the sciatic nerve of acutely streptozotocinized (i.e., diabetic) rats.
The compounds of Examples 1 and 2 were tested for their ability to reduce or inhibit sorbitol accumulation in the sciatic nerve of streptozotocinized (i.e., diabetic) rats by the procedure essentially described in U.S. Pat. No. 3,821,383. In the present study, the amount of sorbitol accumulation in the sciatic nerves was measured 27 hours after induction of diabetes. The compounds were administered orally at the dose levels indicated at 4, 8 and 24 hours following the administration of streptozotocin. The results obtained in this manner are presented as the percent inhibition (%) obtained at a 25 mg/kg dose compared to the untreated animal standard (i.e., the untreated animal where sorbitol levels normally rise from approximately 50-100 mM/g. tissue to as high as 400 mM/g. tissue in the 27-hour test period): […]

| IC50 [1] | SMILES | Percent Inhibition at 25 mg/kg [2] |
| --- | --- | --- |
| 100 µM | O=C1NC(=O)C2(CCCc3occc32)N1 (stereo not shown) [Example 1, Spiro[cyclohexa(b)furan-4,4'-imidazolidine]-2',5'-dione] | 46% |
| 100 µM | Cc1cc2c(o1)CCCC21NC(=O)NC1=O (stereo not shown) [Example 2, 2-methyl-spiro[cyclohexa(b)furan-4,4'-imidazolidine]-2',5'-dione] | 2% |
